Data from ChEMBL document CHEMBL1140267, “Synthesis and pharmacological evaluation of substituted 5-[4-[2-(6,7-dimethyl-1,2,3,4-tetrahydro-2-oxo-4-quinoxalinyl)ethoxy]phenyl]methylene]thiazolidine-2,4-dione derivatives as potent euglycemic and hypolipidemic agents” (Bioorg Med Chem Lett, 2005).

How the values were obtained:
Assay type in all cases: ADME, organism-based
Conditions in all cases: in vivo
[1] = Percent decrease in triglyceride level of wistar rat was determined at 10 mg/kg dosage of the compound; parameters: dose 10 mg/kg
[2] = Percent decrease in triglyceride level of wistar rat was determined at 3 mg/kg dosage of the compound; parameters: dose 3 mg/kg
[3] = Percent decrease in plasma glucose level of wistar rat was determined at 100 mg/kg dosage of the compound; parameters: dose 100 mg/kg
[4] = Percent decrease in triglyceride level of wistar rat was determined at 100 mg/kg dosage of the compound; parameters: dose 100 mg/kg
[5] = Percent decrease in plasma glucose level of wistar rat was determined at 10 mg/kg dosage of the compound; parameters: dose 10 mg/kg
[6] = Percent decrease in plasma glucose level of wistar rat was determined at 3 mg/kg dosage of the compound; parameters: dose 3 mg/kg
[7] = Percent decrease in plasma glucose level of wistar rat was determined at 30 mg/kg dosage of the compound; parameters: dose 30 mg/kg
[8] = Percent decrease in triglyceride level of wistar rat was determined at 30 mg/kg dosage of the compound; parameters: dose 30 mg/kg

Structure (SMILES) | Decrease [1] [%] | Decrease [2] [%] | Decrease [3] [%] | Decrease [4] [%] | Decrease [5] [%] | Decrease [6] [%] | Decrease [7] [%] | Decrease [8] [%]
Cc1cc2c(cc1C)N(CCOc1ccc(/C=C3/SC(=O)NC3=O)cc1)C(c1ccccc1)C(=O)N2 (stereo unspecified) | 20.36 | 16.87 | 53.96 | 29.73 | 21.69 | 25.24 | 40.26 | 22.46
Cc1cc2c(cc1C)N(CCOc1ccc(/C=C3/SC(=O)NC3=O)cc1)C(C)C(=O)N2 (stereo unspecified) | 32.62 | 23.46 | 69.72 | 43.42 | 42.17 | 43.16 | 58.48 | 40
Cc1cc2c(cc1C)N(CCOc1ccc(/C=C3/SC(=O)NC3=O)cc1)CC(=O)N2 | 44.2 | 49.63 | 81.25 | 54.95 | 52.63 | 50.12 | 69.47 | 49.12
Cc1cc2c(cc1C)N(CCCOc1ccc(/C=C3/SC(=O)NC3=O)cc1)C(C)C(=O)N2 (stereo unspecified) | 29.69 | 21.73 | 64.26 | 37.46 | 39.21 | 35.73 | 49.62 | 28.82
Cc1cc2c(cc1C)N(CCCOc1ccc(/C=C3/SC(=O)NC3=O)cc1)CC(=O)N2 | 38.13 | 30.36 | 72.33 | 50.1 | 49.11 | 47.65 | 64.76 | 47.35
Cc1cc2c(cc1C)N(CCCOc1ccc(/C=C3/SC(=O)NC3=O)cc1)C(c1ccccc1)C(=O)N2 (stereo unspecified) | 10.66 | 10.46 | 38.96 | 22.89 | 19.25 | 18.68 | 26.42 | 14.73
CN(CCOc1ccc(CC2SC(=O)NC2=O)cc1)c1ccccn1 (stereo unspecified) [ROSIGLITAZONE] | 35.25 | 47 | 75.5 | 46 | 47.25 | 41.6 | 65 | 41
